Data on two compounds can be found in PMC9243336, “Santalol Isomers Inhibit Transthyretin Amyloidogenesis and Associated Pathologies in Caenorhabditis elegans” (Frontiers in Pharmacology, 2022).

Assay [1] addresses T1, Transthyretin (TTR, prealbumin), wild type (Homo sapiens, UniProt P02766).
T1 construct: homotetramer; prealbumin from human plasma
The assay can be described thus: acid-induced (pH […] h) aggregation turbidity; urea denaturation by Trp fluorescence. Type of assay: biochemical.

In the next assay the target is Transthyretin (TTR) V30M (Homo sapiens, UniProt P02766, V50M). Described as above. It is filed as biochemical.

In the case of `C/C(=C/CC[C@@]1(C)C2C[C@@H]3[C@H](C2)C31C)CO` [α-santalol], the EC50 (in general, the concentration giving half of the maximal effect) in assay [1] stood at 36.7 ± 1.2 µM; at Transthyretin (TTR) V30M it was 44.3 ± 3.5 µM.
Turning to `C=C1[C@@H]2CC[C@@H](C2)[C@@]1(C)CC/C=C(/C)CO` [β-santalol], the values for the EC50 (in assay [1]; on Transthyretin (TTR) V30M) were 31.1 ± 2.4 µM and 34.5 ± 2.8 µM, respectively.
